What was measured:
Carbonic anhydrase 9 = Carbonic anhydrase 9 (Homo sapiens, UniProt Q16790)
Description: Inhibitory activity against human carbonic anhydrase IX was determined

Oryctolagus cuniculus [1] = species on record: Oryctolagus cuniculus; details: dose 30 mg/kg
Description: Variation of intraocular pressure in day one at a dose of 30 mg/kg by systemic administration in hypertensive rabbits

Oryctolagus cuniculus [2] = species on record: Oryctolagus cuniculus; details: dose 30 mg/kg; remark: listed apart in the source
Description: Variation of intraocular pressure in third day at a dose of 30 mg/kg by systemic administration in hypertensive rabbits

Carbonic anhydrase 1 = Carbonic anhydrase 1 (Homo sapiens, UniProt P00915)
Description: Inhibitory activity against human carbonic anhydrase I was determined

Carbonic anhydrase 4 = target: T1, Carbonic anhydrase 4 (Bos taurus, UniProt Q95323)
T1 sequence (Q95323 whole entry): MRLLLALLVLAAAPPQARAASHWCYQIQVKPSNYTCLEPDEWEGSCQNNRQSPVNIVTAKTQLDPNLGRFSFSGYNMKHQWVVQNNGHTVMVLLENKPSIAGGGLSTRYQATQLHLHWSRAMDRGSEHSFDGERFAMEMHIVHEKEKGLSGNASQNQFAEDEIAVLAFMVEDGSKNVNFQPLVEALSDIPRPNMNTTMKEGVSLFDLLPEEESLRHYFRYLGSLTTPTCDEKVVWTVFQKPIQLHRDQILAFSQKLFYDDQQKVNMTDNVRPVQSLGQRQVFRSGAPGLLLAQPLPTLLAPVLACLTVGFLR
Description: Inhibitory activity against bovine carbonic anhydrase IV was determined

Oryctolagus cuniculus [3] = test: Variation of intraocular pressure in fifth day at a dose of 30 mg/kg by systemic administration in hypertensive rabbits; type: functional, Eye
Oryctolagus cuniculus [4] = species on record: Oryctolagus cuniculus; details: dose 30 mg/kg; remark: listed apart in the source
Description: Variation of intraocular pressure in second day at a dose of 30 mg/kg by systemic administration in hypertensive rabbits

Carbonic anhydrase 2 = Carbonic anhydrase 2 (Homo sapiens, UniProt P00918)
Description: Inhibitory activity against human carbonic anhydrase II was determined

Oryctolagus cuniculus [5] = species on record: Oryctolagus cuniculus; details: dose 30 mg/kg; remark: listed apart in the source
Description: Variation of intraocular pressure in sixth day at a dose of 30 mg/kg by systemic administration in hypertensive rabbits

Oryctolagus cuniculus [6] = species on record: Oryctolagus cuniculus; details: dose 30 mg/kg; remark: listed apart in the source
Description: Variation of intraocular pressure in seventh day at a dose of 30 mg/kg by systemic administration in hypertensive rabbits

Oryctolagus cuniculus [7] = species on record: Oryctolagus cuniculus; details: dose 30 mg/kg; remark: listed apart in the source
Description: Variation of intraocular pressure in fourth day at a dose of 30 mg/kg at a dose by systemic administration in hypertensive rabbits

Chain of Carbonic anhydrase 1 (P00915 whole entry): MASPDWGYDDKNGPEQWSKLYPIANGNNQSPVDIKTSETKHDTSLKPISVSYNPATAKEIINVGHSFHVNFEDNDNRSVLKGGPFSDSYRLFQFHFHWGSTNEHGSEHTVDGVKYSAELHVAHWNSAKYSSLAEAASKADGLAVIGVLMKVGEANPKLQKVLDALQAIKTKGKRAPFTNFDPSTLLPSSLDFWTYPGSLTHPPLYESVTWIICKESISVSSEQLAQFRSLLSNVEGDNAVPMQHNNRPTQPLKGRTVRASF

Row | Compound | IC50 (Carbonic anhydrase 9) [µM] | Delta IOP (Oryctolagus cuniculus [1]) [mmHg] | Delta IOP (Oryctolagus cuniculus [2]) [mmHg] | IC50 (Carbonic anhydrase 1) [µM] | IC50 (Carbonic anhydrase 4) [µM] | Delta IOP (Oryctolagus cuniculus [3]) [mmHg] | Delta IOP (Oryctolagus cuniculus [4]) [mmHg] | IC50 (Carbonic anhydrase 2) [µM] | Delta IOP (Oryctolagus cuniculus [5]) [mmHg] | Delta IOP (Oryctolagus cuniculus [6]) [mmHg] | Delta IOP (Oryctolagus cuniculus [7]) [mmHg]
1 | Cc1ccc(-c2cc(C(F)(F)F)nn2-c2ccc(S(N)(=O)=O)cc2)cc1 [CELECOXIB] | 0.016 | – | – | – | – | – | – | – | – | – | –
2 | CS(=O)(=O)c1ccc(-n2cc(-c3ccc(F)cc3)c(C(F)(F)F)n2)cc1 | > 100 | 0.14 | 0.22 | > 100 | > 100 | 0.16 | 0.31 | > 100 | 0.34 | 0.16 | 0.25
3 | COc1ccc(-n2nc(C(F)(F)F)cc2-c2ccc(Cl)cc2)cc1 [SC-560] | > 100 | 0.23 | 0.25 | > 100 | > 100 | 0.3 | 0.017 | > 100 | 0.41 | 0.52 | 0.34
